Reference: patent publication US9326973B2, “Hepatitis C virus inhibitors” (priority 2012, dated 2016)

The compounds below were run on HCV replicon, genotype-1a variant with glutamine 30 changed to glutamate in the NS5A protein (assay: microbe, parasite or virus in culture). Details: HCV replicon genotype 1a Q30E (Q→E) variant; test compound titrated with an NS5A-targeting compound (BMS-790052 fixed at 200 nM); ranking of synergist activity.
Format: cell-based, HCV genotype 1a
From the text: The NS5A synergistic inhibitory effect of test compounds can be determined using various amounts of an NS5A-targeting compound with titration of a second compound of interest. […] In one embodiment, the HCV genotype strain can be genotype 1a containing a change at amino acid 30 of the NS5A protein consisting of glutamine to glutamate. The test compound can be chosen from compounds listed above or from others present in the literature.

| SMILES | Fold-Synergistic 1a (Q30E) [fold] |
| --- | --- |
| CC(C)(C)[C@H](NC(=O)[C@@H]1CCCCN1CC(F)(F)F)c1nc(-c2ccc(-c3ccc(-c4c[nH]c([C@@H](NC(=O)[C@@H]5CCCCN5CC(F)(F)F)C(C)(C)C)n4)cc3)cc2)c[nH]1 [Compound L-51] | >100 |
| CC(C)(C)[C@H](NC(=O)[C@@H]1CCCN1CC(F)(F)F)c1nc(-c2ccc(-c3ccc(-c4c[nH]c([C@@H](NC(=O)[C@@H]5CCCN5CC(F)(F)F)C(C)(C)C)n4)cc3)cc2)c[nH]1 [Compound L-52] | >100 |
| CC1(C)CC(C(=O)N[C@H](c2nc(-c3ccc(-c4ccc(-c5c[nH]c([C@@H](NC(=O)C6CC(C)(C)C6)C(C)(C)C)n5)cc4)cc3)c[nH]2)C(C)(C)C)C1 [Compound L-53] | >100 |
| COC1CC(C(=O)N[C@H](c2nc(-c3ccc(-c4ccc(-c5c[nH]c([C@@H](NC(=O)C6CC(OC)C6)C(C)(C)C)n5)cc4)cc3)c[nH]2)C(C)(C)C)C1 (stereo partly drawn) [Compound L-54] | >100 |
| CC(C)(C)OC(=O)N1[C@H](C(=O)N[C@H](c2nc(-c3ccc(-c4ccc(-c5c[nH]c([C@@H](NC(=O)[C@@H]6COC(C)(C)N6C(=O)OC(C)(C)C)C(C)(C)C)n5)cc4)cc3)c[nH]2)C(C)(C)C)COC1(C)C [Compound L-55] | >100 |
| CC(C)(CO)C(=O)N[C@H](c1nc(-c2ccc(-c3ccc(-c4c[nH]c([C@@H](NC(=O)C(C)(C)CO)C(C)(C)C)n4)cc3)cc2)c[nH]1)C(C)(C)C [Compound L-56] | >100 |
| CC(C)(C)OC(=O)N1CC2(CC(C(=O)N[C@H](c3nc(-c4ccc(-c5ccc(-c6c[nH]c([C@@H](NC(=O)C7CC8(C7)CN(C(=O)OC(C)(C)C)C8)C(C)(C)C)n6)cc5)cc4)c[nH]3)C(C)(C)C)C2)C1 (stereo partly drawn) [Compound L-57] | >100 |
| CC(C)(C)[C@H](NC(=O)C1(C)CC1(F)F)c1nc(-c2ccc(-c3ccc(-c4c[nH]c([C@@H](NC(=O)C5(C)CC5(F)F)C(C)(C)C)n4)cc3)cc2)c[nH]1 (stereo partly drawn) [Compound L-58a] | >100 |
| CC(C)(C)OC(=O)N1CC(C)(C)OC[C@H]1C(=O)N[C@H](c1nc(-c2ccc(-c3ccc(-c4c[nH]c([C@@H](NC(=O)[C@@H]5COC(C)(C)CN5C(=O)OC(C)(C)C)C(C)(C)C)n4)cc3)cc2)c[nH]1)C(C)(C)C [Compound L-60] | >100 |
| CC(C)(C)OC(=O)N1CCOC[C@H]1C(=O)N[C@H](c1nc(-c2ccc(-c3ccc(-c4c[nH]c([C@@H](NC(=O)[C@@H]5COCCN5C(=O)OC(C)(C)C)C(C)(C)C)n4)cc3)cc2)c[nH]1)C(C)(C)C [Compound L-61] | >100 |
| CN(CC(F)(F)F)C(C)(C)C(=O)N[C@H](c1nc(-c2ccc(-c3ccc(-c4c[nH]c([C@@H](NC(=O)C(C)(C)N(C)CC(F)(F)F)C(C)(C)C)n4)cc3)cc2)c[nH]1)C(C)(C)C [Compound L-62] | >100 |
| CC(C)(C)OC(=O)N1CC(C)(C(=O)N[C@H](c2nc(-c3ccc(-c4ccc(-c5c[nH]c([C@@H](NC(=O)C6(C)CN(C(=O)OC(C)(C)C)C6)C(C)(C)C)n5)cc4)cc3)c[nH]2)C(C)(C)C)C1 [Compound L-63] | >100 |
| CC(C)(C)[C@H](NC(=O)[C@H]1CCCO1)c1nc(-c2ccc(-c3ccc(-c4c[nH]c([C@@H](NC(=O)[C@H]5CCCO5)C(C)(C)C)n4)cc3)cc2)c[nH]1 [Compound L-64] | >100 |
| CC(C)(C)[C@H](NC(=O)[C@@H]1CCCO1)c1nc(-c2ccc(-c3ccc(-c4c[nH]c([C@@H](NC(=O)[C@@H]5CCCO5)C(C)(C)C)n4)cc3)cc2)c[nH]1 [Compound L-65] | >100 |
| CC(C)(C)[C@H](NC(=O)C(C)(O)C(F)(F)F)c1nc(-c2ccc(-c3ccc(-c4c[nH]c([C@@H](NC(=O)C(C)(O)C(F)(F)F)C(C)(C)C)n4)cc3)cc2)c[nH]1 (stereo partly drawn) [Compound L-66a] | >100 |
| CC(C)(C)[C@H](NC(=O)[C@H]1[C@@H]2COC[C@@H]21)c1nc(-c2ccc(-c3ccc(-c4c[nH]c([C@@H](NC(=O)[C@H]5[C@@H]6COC[C@@H]65)C(C)(C)C)n4)cc3)cc2)c[nH]1 [Compound L-67] | >100 |
| CC(C)(C)[C@H](NC(=O)[C@@H]1COCCN1CC(F)(F)F)c1nc(-c2ccc(-c3ccc(-c4c[nH]c([C@@H](NC(=O)[C@@H]5COCCN5CC(F)(F)F)C(C)(C)C)n4)cc3)cc2)c[nH]1 [Compound L-68] | >100 |
| CC1(C(=O)N[C@H](c2nc(-c3ccc(-c4ccc(-c5c[nH]c([C@@H](NC(=O)C6(C)CCCO6)C(C)(C)C)n5)cc4)cc3)c[nH]2)C(C)(C)C)CCCO1 (stereo partly drawn) [Compound L-69] | >100 |
| CC(C)(C)[C@H](NC(=O)CC1CCCO1)c1nc(-c2ccc(-c3ccc(-c4c[nH]c([C@@H](NC(=O)CC5CCCO5)C(C)(C)C)n4)cc3)cc2)c[nH]1 (stereo partly drawn) [Compound L-70] | >100 |
| CC(C)(C)[C@H](NC(=O)C1(O)CCC1)c1nc(-c2ccc(-c3ccc(-c4c[nH]c([C@@H](NC(=O)C5(O)CCC5)C(C)(C)C)n4)cc3)cc2)c[nH]1 [Compound L-71] | >100 |

| SMILES | Fold-Synergistic 1a (Q30E) [fold] |
| --- | --- |
| COC(=O)N[C@H](C(=O)N[C@H](c1nc(-c2ccc(-c3ccc(-c4c[nH]c([C@@H](NC(=O)[C@@H](NC(=O)OC)C5C[C@@H](C)O[C@H](C)C5)C(C)(C)C)n4)cc3)cc2)c[nH]1)C(C)(C)C)C1C[C@@H](C)O[C@H](C)C1 (stereo partly drawn) [Compound L-72] | >10 |
| CC(C)(C)[C@H](NC(=O)C1(O)CCCC1)c1nc(-c2ccc(-c3ccc(-c4c[nH]c([C@@H](NC(=O)C5(O)CCCC5)C(C)(C)C)n4)cc3)cc2)c[nH]1 [Compound L-73] | >100 |
| CC(C)(C)[C@H](NC(=O)[C@H](O)C1CCCCC1)c1nc(-c2ccc(-c3ccc(-c4c[nH]c([C@@H](NC(=O)[C@H](O)C5CCCCC5)C(C)(C)C)n4)cc3)cc2)c[nH]1 [Compound L-74] | >100 |
| CC(C)(C)[C@H](NC(=O)CC1CCOC2(CC2)C1)c1nc(-c2ccc(-c3ccc(-c4c[nH]c([C@@H](NC(=O)CC5CCOC6(CC6)C5)C(C)(C)C)n4)cc3)cc2)c[nH]1 (stereo partly drawn) [Compound L-75] | >100 |
| CC(C)(C)[C@H](O)C(=O)N[C@H](c1nc(-c2ccc(-c3ccc(-c4c[nH]c([C@@H](NC(=O)[C@@H](O)C(C)(C)C)C(C)(C)C)n4)cc3)cc2)c[nH]1)C(C)(C)C [Compound L-76] | >100 |
| CC(C)(C)[C@H](NC(=O)[C@@H](O)C1CCCCC1)c1nc(-c2ccc(-c3ccc(-c4c[nH]c([C@@H](NC(=O)[C@@H](O)C5CCCCC5)C(C)(C)C)n4)cc3)cc2)c[nH]1 [Compound L-77] | >100 |
| CC(C)[C@H](O)C(=O)N[C@H](c1nc(-c2ccc(-c3ccc(-c4c[nH]c([C@@H](NC(=O)[C@@H](O)C(C)C)C(C)(C)C)n4)cc3)cc2)c[nH]1)C(C)(C)C [Compound L-78] | >100 |
| CC(C)(C)[C@H](NC(=O)[C@H]1CCC(=O)O1)c1nc(-c2ccc(-c3ccc(-c4c[nH]c([C@@H](NC(=O)[C@H]5CCC(=O)O5)C(C)(C)C)n4)cc3)cc2)c[nH]1 [Compound L-79] | <10 |
| CO[C@H](C)C(=O)N[C@H](c1nc(-c2ccc(-c3ccc(-c4c[nH]c([C@@H](NC(=O)[C@@H](C)OC)C(C)(C)C)n4)cc3)cc2)c[nH]1)C(C)(C)C [Compound L-80] | >100 |
| CC(C)(C)[C@H](NC(=O)[C@H](O)C(F)(F)F)c1nc(-c2ccc(-c3ccc(-c4c[nH]c([C@@H](NC(=O)[C@H](O)C(F)(F)F)C(C)(C)C)n4)cc3)cc2)c[nH]1 [Compound L-81] | >100 |
| CC(C)[C@@H](O)C(=O)N[C@H](c1nc(-c2ccc(-c3ccc(-c4c[nH]c([C@@H](NC(=O)[C@H](O)C(C)C)C(C)(C)C)n4)cc3)cc2)c[nH]1)C(C)(C)C [Compound L-82] | >100 |
| CC1(C(=O)N[C@H](c2nc(-c3ccc(-c4ccc(-c5c[nH]c([C@@H](NC(=O)C6(C)OCCCO6)C(C)(C)C)n5)cc4)cc3)c[nH]2)C(C)(C)C)OCCCO1 [Compound L-83] | >100 |
| CC1(C(=O)N[C@H](c2nc(-c3ccc(-c4ccc(-c5c[nH]c([C@@H](NC(=O)C6(C)OCC7(CC7)CO6)C(C)(C)C)n5)cc4)cc3)c[nH]2)C(C)(C)C)OCC2(CC2)CO1 (stereo partly drawn) [Compound L-84] | >100 |
| C[C@H]1C[C@H](C)OC(C)(C(=O)N[C@H](c2nc(-c3ccc(-c4ccc(-c5c[nH]c([C@@H](NC(=O)C6(C)O[C@@H](C)C[C@H](C)O6)C(C)(C)C)n5)cc4)cc3)c[nH]2)C(C)(C)C)O1 (stereo partly drawn) [Compound L-85] | >100 |
| CO[C@@H](C(=O)N[C@H](c1nc(-c2ccc(-c3ccc(-c4c[nH]c([C@@H](NC(=O)[C@H](OC)C(C)C)C(C)(C)C)n4)cc3)cc2)c[nH]1)C(C)(C)C)C(C)C [Compound L-86] | >100 |
| CC1(C(=O)N[C@H](c2nc(-c3ccc(-c4ccc(-c5c[nH]c([C@@H](NC(=O)C6(C)OCC(F)(F)CO6)C(C)(C)C)n5)cc4)cc3)c[nH]2)C(C)(C)C)OCC(F)(F)CO1 [Compound L-87] | >100 |
| Cc1nnc(C(=O)N[C@H](c2nc(-c3ccc(-c4ccc(-c5c[nH]c([C@@H](NC(=O)c6nnc(C)o6)C(C)(C)C)n5)cc4)cc3)c[nH]2)C(C)(C)C)o1 [Compound L-89] | >10 |
| O=C(N[C@H](c1nc(-c2ccc(-c3ccc(-c4c[nH]c([C@@H](NC(=O)C5CCC(F)(F)CC5)C5CC5)n4)cc3)cc2)c[nH]1)C1CC1)C1CCC(F)(F)CC1 [Compound L-90] | >100 |
| CC(C)(C(=O)N[C@H](c1nc(-c2ccc(-c3ccc(-c4c[nH]c([C@@H](NC(=O)C(C)(C)C5(O)CCC(F)(F)CC5)C5CC5)n4)cc3)cc2)c[nH]1)C1CC1)C1(O)CCC(F)(F)CC1 [Compound L-91] | >100 |
